Where a name gives a salt, the structure may show the parent alone. Blank lines part the entries; values can stand above or below the compound they belong to.
Biological target: T1, LHRH rat pituitary receptor (Rattus norvegicus, UniProt P30969)
T1 construct: from tissue; host or cells: rat pituitary
T1 sequence (P30969 1-327): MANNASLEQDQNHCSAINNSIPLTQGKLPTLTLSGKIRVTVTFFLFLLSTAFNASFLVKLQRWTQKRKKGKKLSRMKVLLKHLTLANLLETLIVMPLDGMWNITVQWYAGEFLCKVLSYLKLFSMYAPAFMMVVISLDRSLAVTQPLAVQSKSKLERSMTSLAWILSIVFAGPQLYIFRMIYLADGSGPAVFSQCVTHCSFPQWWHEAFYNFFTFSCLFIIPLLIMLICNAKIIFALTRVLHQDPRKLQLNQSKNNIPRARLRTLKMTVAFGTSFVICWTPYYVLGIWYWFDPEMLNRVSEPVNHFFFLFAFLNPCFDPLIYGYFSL
Assay: LHRH rat pituitary receptor binding
Description: Representative compounds of the present invention were evaluated in vitro for potency against for LHRH rat pituitary receptor binding [pK, ]. Methods for the assay procedures are 10 described in […] al. J Med. Chem., 32: 2340-2344 (1989). Values of pK, are the negative logarithms of the equilibrium dissociation constant of the particular antagonist test compound for the receptor binding. […] Leuprolide LHRH agonist, disclosed and claimed in U.S. Pat. No. 4,005, 063, has the structure 5-oxo-[…].

[1] = Table 2: compounds of formula (VI), by isoquinolinyl moiety R
[2] = Table 1: compounds of formula (V), by n and R1
[3] = Table 3: compounds of formula (VII), by substituent R'

Structure (SMILES): COc1cc2c(cc1OC)C(CCCCNCCC(C)C)N(CCCC(CCCNC(=O)CCc1ccc(F)cc1)(c1ccccc1)c1ccccc1)CC2 (centres unmarked) [Example 30, 7-[N-3-(4-Fluorophenyl)propionyl]amino-1-[N-(1,2,3,4-tetrahydro-1-(4-N-isopentylamino)butyll-6,7-dimethoxyisoquinolinyl)1-4.4-diphenylheptanedihydrochloride]
- pKI [2]: 8.00

Structure (SMILES): COc1cc2c(cc1OC)C(C)N(CCCC(CCCNC(=O)CCc1ccc(Cl)cc1)(c1ccccc1)c1ccccc1)CC2 (centres unmarked) [Example 79, 7-[N-3-(4-chlorophenol)propionyl]amino-1-[N-(I .2.3,4-tetrahydro-1-methyl-6,7-dimethoxyisoguinolinyl)1-4,4-diphenylheptane hydrochloride]
- Ki [3]: 0.195 nM

Structure (SMILES): COc1ccc2c(c1)CCN(CCCC(CCCNC(=O)CCc1ccc(F)cc1)(c1ccccc1)c1ccccc1)C2C (stereo not drawn) [Example 50, 7-[N-3-(4-Fluorophenyl)propionyl]amino-1-[-1-(1,2,3,4-tetrahydro-1-methv,l-6-methoxyisoquinolinyl)1-4.4-diphenylheptane hydrochloride]
- Ki [1]: 2.51 nM

Structure (SMILES): CC(=O)Oc1cc2c(cc1OC(C)=O)C(C)N(CCCC(CCCNC(=O)CCc1ccc(F)cc1)(c1ccccc1)c1ccccc1)CC2 (centres unmarked) [Example 58, 7-[N-3-(4-Fluorophenyl)propionyl]-1-[N-(1,2,3,4-tetrahydro-1-methYI-6,7-diacetoxyisoquinolinyl)]-4,4-dilhenylheptane]
- Ki [1]: 12.3 nM

Structure (SMILES): COc1cc2c(cc1OC)C(C1CCCCC1)N(CCCC(CCCNC(=O)CCc1ccc(F)cc1)(c1ccccc1)c1ccccc1)CC2 (centres unmarked) [Example 10, 7-[N-3-(4-Fluorophenyl)propionyl]amino-1-[N-(1,2,3,4-tetrahydro-1-cyclohexyl-6,7-dimethoxyisoguinolinyl)1-4.4-diphenylheptane hydrochloride]
- Ki [2]: 2.88 nM

Structure (SMILES): COc1cc2c(cc1OC)C(C(C)C)N(CCCC(CCCNC(=O)CCc1ccc(F)cc1)(c1ccccc1)c1ccccc1)CC2 (centres unmarked) [Example 6, 7-[N-3-(4-Fluorophenylpropionyl]amino-1-[N-(1,2,3,4-tetrahydro-1-isopropyl-6.7-dimethoxyisoquinolinyl)]1-4.4-diphenylheptane hydrochloride]
- Ki [2]: 1.58 nM

The next lines start with the values.

- pKI [1]: 7.90
Structure (SMILES): CC1c2cc3c(cc2CCN1CCCC(CCCNC(=O)CCc1ccc(F)cc1)(c1ccccc1)c1ccccc1)OCCO3 (centres unmarked) [Example 49, 7-[N-3-(4-Fluorophenyl)propionyl]amino-1-[N-(1,2,3,4-tetrahydro-1-methyl-6,7-dioxane-isoguinolinyl)1-4.4-diphenylheotane hydrochloride]

- Ki [3]: 3.16 nM
Structure (SMILES): COc1cc2c(cc1OC)C(C)N(CCCC(CCCNC(=O)CCc1ccccc1)(c1ccccc1)c1ccccc1)CC2 (centres unmarked) [Example 72]

- pKI [2]: 8.14
Structure (SMILES): COc1ccc(C2c3cc(OC)c(OC)cc3CCN2CCCC(CCCNC(=O)CCc2ccc(F)cc2)(c2ccccc2)c2ccccc2)cc1 (centres unmarked) [Example 14, 7-[N-3-(4-Fluorophenyl)propionyl]amino-1-[N-(1,2,3,4-tetrahydro-1-(4-methoxyphenyl)-6,7-dimethoxyisoguinolinyl)1-4.4-diihenylhentane hydrochloride]

- Ki [1]: 1.91 nM
Structure (SMILES): COc1cc2c(cc1Br)CCN(CCCC(CCCNC(=O)CCc1ccc(F)cc1)(c1ccccc1)c1ccccc1)C2C (centres unmarked) [Example 59, 7-[N-3-(4-Fluorophenyl)propionyl]-1-[N-(1,2,3,4-tetrahydro-1-methyl-6-bromo-7-methoxyisoguinolinyl)]-4,4-diphenylheptane hydrochloride]

- Ki [1]: 4.37 nM
Structure (SMILES): CC1c2cc([N+](=O)[O-])ccc2CCN1CCCC(CCCNC(=O)CCc1ccc(F)cc1)(c1ccccc1)c1ccccc1 (stereo not drawn) [Example 54, 7-[N-3-(4-Fluorophenyl)Propionyl]-1-[N-(1,2,3,4-tetrahydro-1-methyl-7-nitro-isoquinolinyl)l-4,4-diphenylheiptane hydrochloride]
